Results taken from the Deep4Chem optical property database.
Blank lines part the entries; values can stand above or below the compound they belong to.

Assay: photoluminescence quantum yield (fraction); solvent given as SMILES

Compound: CC(C)(C)c1ccc(/C=C/c2ccc(N(c3ccc(/C=C/c4ccc(C(C)(C)C)cc4)cc3)c3ccc(-c4nc5ccccc5nc4-c4ccc(N(c5ccc(/C=C/c6ccc(C(C)(C)C)cc6)cc5)c5ccc(/C=C/c6ccc(C(C)(C)C)cc6)cc5)cc4)cc3)cc2)cc1
photoluminescence quantum yield (in C1CCOC1): 0.72

Compound: CCOC(CN1C(=O)C2=C(c3ccc(OC)c(OC)c3)N(CC(OCC)OCC)C(=O)C2=C1c1ccc(OC)c(OC)c1)OCC
photoluminescence quantum yield (in ClC(Cl)Cl): 0.9

Compound: N#Cc1nn(-c2c(Cl)cccc2Cl)nc1N1CCCC1
photoluminescence quantum yield (in CC#N): 0.113

Compound: CCC12C(=C3C(=C4c5ccc(-c6ccccc6)cc5S(=O)(=O)C41CC)C(F)(F)C(F)(F)C3(F)F)c1ccc(-c3ccccc3)cc1S2(=O)=O (stereo unspecified)
photoluminescence quantum yield (in C1COCCO1): 0.87

Compound: CCOC(=O)CSc1nc(-c2ccccc2)c(C)c(C#N)c1C#N
photoluminescence quantum yield (in C1COCCO1): 0.031
photoluminescence quantum yield (in CC#N): 0.036
photoluminescence quantum yield (in CCO): 0.037
photoluminescence quantum yield (in CCOC(C)=O): 0.037
photoluminescence quantum yield (in ClC(Cl)Cl): 0.033
photoluminescence quantum yield (in c1ccccc1): 0.038

Compound: CC/[NH+]=c1\cc2oc3cc(NCCC(=O)NC(C)C(=O)OC)c4ccccc4c3nc-2cc1C (stereo unspecified)
photoluminescence quantum yield (in CCO): 0.39

Compound: CCCCN(CCCC)c1ccc2c(c1)C#CC#Cc1cc(N(CCCC)CCCC)ccc1C#Cc1cc(c3cc1C#Cc1ccc(C(F)(F)F)cc1C#CC#Cc1cc(C(F)(F)F)ccc1C#C3)C#C2
photoluminescence quantum yield (in ClCCl): 0.15

Compound: CCCCCCCCCCOc1cc(OCCCCCCCCCC)cc(C2=C3C(C)=CC(/C=C/c4ccc(OC)cc4)=[N+]3[B-](F)(F)n3c(/C=C/c4ccc(OC)cc4)cc(C=Cc4ccc(OC)cc4)c32)c1
photoluminescence quantum yield (in ClC(Cl)Cl): 0.35

Compound: Cc1ccccc1C(=O)NN1C2=C(CC3=C1CC(C)(C)CC3=O)C(=O)CC(C)(C)C2
photoluminescence quantum yield (in C1CCOC1): 0.26
photoluminescence quantum yield (in CC#N): 0.7
photoluminescence quantum yield (in CC(C)=O): 0.53
photoluminescence quantum yield (in CCCCCO): 0.5
photoluminescence quantum yield (in CO): 0.3
photoluminescence quantum yield (in ClC(Cl)Cl): 0.64
photoluminescence quantum yield (in ClCCl): 0.47

Compound: CC(=O)NC(Cc1ccc(O)cc1)C(=O)O[Si]1(OC(=O)C(Cc2ccc(O)cc2)NC(C)=O)n2c3c4ccccc4c2/N=C2N=C(/N=c4/c5ccccc5/c(n41)=N/C1=NC(=N\3)/c3ccccc31)c1ccccc1\2 (stereo unspecified)
photoluminescence quantum yield (in CN(C)C=O): 0.26

Compound: Fc1ccc(C#Cc2c(C#Cc3ccc(F)cc3)c(C#Cc3ccc(F)cc3)c(C#Cc3ccc(F)cc3)c(C#Cc3ccc(F)cc3)c2C#Cc2ccc(F)cc2)cc1
photoluminescence quantum yield (in ClCCl): 0.25

Compound: Cc1cc(C)c(B(c2ccc(N(c3ccccc3)c3ccccc3)cc2)c2c(C)cc(C)cc2C)c(C)c1
photoluminescence quantum yield (in Cc1ccccc1): 0.91

Compound: N#Cc1cccc(C#N)c1-n1c2ccccc2c2cc(-c3ccc4c(c3)c3ccccc3n4-c3c(C#N)cccc3C#N)ccc21
photoluminescence quantum yield (in Cc1ccccc1): 0.72
photoluminescence quantum yield (in O=P(c1ccccc1)(c1ccccc1)c1ccccc1Oc1ccccc1P(=O)(c1ccccc1)c1ccccc1): 0.72

Compound: Cc1ccc(C2=C3C=C(I)C=[N+]3[B-](F)(F)n3c2cc(I)c3I)cc1
photoluminescence quantum yield (in C1CCCCC1): 0.06
photoluminescence quantum yield (in CC#N): 0.02
photoluminescence quantum yield (in CCO): 0.026
photoluminescence quantum yield (in CCOC(C)=O): 0.034
photoluminescence quantum yield (in CO): 0.025
photoluminescence quantum yield (in OCC(F)(F)F): 0.022

Compound: CCn1c2ccccc2c2cc(C#Cc3cc(C#Cc4ccc5c(c4)c4ccccc4n5CC)ncn3)ccc21
photoluminescence quantum yield (in C1CCOC1): 0.74
photoluminescence quantum yield (in CCOC(C)=O): 0.83
photoluminescence quantum yield (in CN(C)C=O): 0.68
photoluminescence quantum yield (in Cc1ccccc1): 0.84
photoluminescence quantum yield (in ClCCl): 0.72

Compound: CCCCc1cc2cccc3cc(CCCC)c4cc(-c5cc6[b-]7c(c5)c(CCCC)cc5cccc(cc6CCCC)[n+]75)cc1[b-]4[n+]23
photoluminescence quantum yield (in C1CCCCC1): 0.06

Compound: Cc1cc(C)c(B(c2cc3c4c(c(B(c5c(C)cc(C)cc5C)c5c(C)cc(C)cc5C)cc5c4c2CCC5)CCC3)c2c(C)cc(C)cc2C)c(C)c1
photoluminescence quantum yield (in CCCCCC): 0.9

Compound: N#C/C(=C\c1ccc(C#N)cc1)c1nc(-c2ccc(Cl)cc2)c(-c2ccccc2)s1
photoluminescence quantum yield (in CC#N): 0.114

Compound: c1ccc(-c2nn(-c3ccccc3)c3nc4ccccc4cc23)cc1
photoluminescence quantum yield (in C1CCCCC1): 0.86
photoluminescence quantum yield (in C1CCOC1): 0.9
photoluminescence quantum yield (in CC#N): 0.73
photoluminescence quantum yield (in CC(C)=O): 0.85
photoluminescence quantum yield (in CCCCCl): 0.91
photoluminescence quantum yield (in CCCCOCCCC): 0.88
photoluminescence quantum yield (in CN(C)C=O): 0.78

Compound: CC(C)(C)c1cc(C(C)(C)C)c(-c2nnc(-c3ccc(-n4c5ccccc5c5ccccc54)cc3)o2)c(C(C)(C)C)c1
photoluminescence quantum yield (in Cc1ccccc1): 0.62

Compound: Cc1ccc(N(c2ccc(C)cc2)c2ccc(-c3ccc(C=C(C#N)C#N)s3)cc2)cc1
photoluminescence quantum yield (in ClC(Cl)Cl): 0.07

Compound: C(#Cc1cccc(C#Cc2ccc(-n3c4ccccc4c4ccccc43)cc2)c1)c1ccc(-n2c3ccccc3c3ccccc32)cc1
photoluminescence quantum yield (in ClCCl): 0.8

Compound: CCN(C)c1ccc(C2=C3C(C)=CC(C)=[N+]3[B-](F)(F)n3c(C)cc(C)c32)cc1
photoluminescence quantum yield (in CO): 0.44

Other lines, results leading:

photoluminescence quantum yield (in C1CCCCC1): 0.7
Compound: CB1C=Cc2ccc3ccccc3c2N1

photoluminescence quantum yield (in CS(C)=O): 0.049
Compound: CCOC(=O)C1=C(N)n2c(=O)c3ccccc3c(=O)n2C1c1ccc([N+](=O)[O-])cc1 (stereo unspecified)

photoluminescence quantum yield (in ClCCl): 0.42
Compound: Cn1nc(-c2ccccc2)cc1-c1ccccc1

photoluminescence quantum yield (in ClCCl): 0.14
Compound: C[Si]1(C)c2ccccc2-c2ccccc21

photoluminescence quantum yield (in C1COCCO1): 0.466
photoluminescence quantum yield (in CC#N): 0.048
photoluminescence quantum yield (in CCO): 0.073
photoluminescence quantum yield (in CCOC(C)=O): 0.186
photoluminescence quantum yield (in O): 0.0069
Compound: CN1C(=O)/C(=C/c2ccncc2)N=C1c1ccccc1

photoluminescence quantum yield (in C1CCOC1): 0.56
Compound: C(=C\c1cc2ccccc2c2ccccc12)/c1c2ccccc2cc2ccccc12

photoluminescence quantum yield (in CC1CCCCC1): 0.41
photoluminescence quantum yield (in CC#N): 0.04
Compound: C(=C\c1c2ccccc2cc2ccccc12)/c1ccc2ccccc2n1

photoluminescence quantum yield (in ClC(Cl)Cl): 0.14
photoluminescence quantum yield (in ClCCl): 0.217
Compound: c1ccc(-c2nc(-c3ccccc3)n3ccccc23)cc1

photoluminescence quantum yield (in C1COCCO1): 0.65
Compound: CCC(C)(C)c1ccc(-c2ccc(-c3ccccc3)cc2)cc1

photoluminescence quantum yield (in ClCCl): 0.99
Compound: COc1ccc(C2=Cc3ccccc3[Si]2(c2ccccc2)c2ccccc2)cc1
